Test results taken from ChEMBL document CHEMBL1201862, “PubChem BioAssay data set” (2004).
Activity calls are given as the source filed them.

Key:
[1] = Trypanosoma cruzi growth suppression in host cells – NIH3T3 host cells, beta-gal luminescence, confirmation (AID 2044); assay type: functional, cell-based;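 also: intracellular parasites grown in NIH/3T3 mouse fibroblasts as host cells; luminescent beta-galactosidase reporter signal from transgenic T. cruzi replicating inside host cells; inhibitors lower the luminescence signal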
Escherichia coli [2] = assay: microbe, parasite or virus in culture
[3] = NIH3T3 cell viability loss – ATP luminescence, mouse fibroblasts, counter-screen, dose response (AID 2010); assay type: functional, cell-based;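 also: cells exposed to compound for about 90 hours before reading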
Escherichia coli [4] = assay: microbe, parasite or virus in culture; remark: listed apart in the source
Trypsin = Trypsin (Sus scrofa, UniProt P00761); assay: trypsin protease activity blockade – biochemical, quenched peptide fluorescence, cherry-pick, selectivity assay for Rce1 protease inhibitor project, dose response (AID 488789)
CAAX prenyl protease 2 = CAAX prenyl protease 2 (Homo sapiens, UniProt Q9Y256); assay: inhibition of Ras-converting CAAX protease Rce1 – biochemical, yeast membranes, quenched-peptide fluorescence, cherry-pick, dose response (AID 588849)
[5] = luciferase reporter signal suppression in cells – H4 neuroglioma cells, luminescence, dose response (AID 1990); assay type: functional, cell-based
[6] = Luminescence Cell-Based Dose Response HTS to Identify Inhibitors of 5'UTR Stem-Loop Driven Prion Protein mRNA Translation in H4 Neuroglioblastoma Cells. [Related pubchem assays: 1827 (Project Summary), 1813 (Primary HTS)]; assay type: functional
[7] = alpha-synuclein stem-loop luciferase translation blockers – H4 neuroglioma cells, luminescence, confirmation (AID 1988); assay type: functional, cell-based
[8] = viability loss in HEK293 cells – cell-based, plate reader, cherry-picked samples, cytotoxicity control, dose response (AID 743446); assay type: functional
[9] = blockers of bursicon-stimulated LGR2 cAMP reporter – cell-based, HEK293, CRE-luciferase reporter, cherry pick, set 2, dose response (AID 743343); assay type: functional;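 also: transfected cells were stimulated with diluted bursicon conditioned medium after compound addition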
[10] = molecular target: 5-hydroxytryptamine receptor 5A (Homo sapiens, UniProt P47898); assay: Counterscreen for agonists of OPRM1-OPRD1 heterodimerization: luminescence-based cell-based high throughput dose response assay to identify agonists of 5-hydroxytryptamine (serotonin) 5A receptor (HTR5A). [Related pubchem assays (depositor defined):AID504326, AID504355, AID504692, AID504904, AID504905]; assay type: functional
[11] = molecular target: Delta-type opioid receptor (Homo sapiens, UniProt P41143); assay: Counterscreen for agonists of heterodimerization of the mu 1 (OPRM1) and delta 1 (OPRD1) opioid receptors: Luminescence-based cell-based high throughput dose response assay to identify agonists of OPRD1 homodimerization. [Related pubchem assays (depositor defined):AID504326, AID504355, AID504692, AID504904, AID504905]; assay type: functional
Mu-type opioid receptor = Mu-type opioid receptor (Homo sapiens, UniProt P35372); assay: Counterscreen for agonists of heterodimerization of the mu 1 (OPRM1) and delta 1 (OPRD1) opioid receptors: Luminescence-based cell-based high throughput dose response assay to identify agonists of OPRM1 homodimerization.; assay type: functional;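 also: U2OS cells expressing OPRM1 and beta-arrestin as split beta-galactosidase partners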
[12] = Luminescence Cell-Based Dose Retest to Confirm Inhibitors of Cancer Stem Cells. [Related pubchem assays (depositor defined):AID2717, AID2721]; assay type: functional; details: Homo sapiens
INS1 = assay: INS-1E survival protection against cytokine death – cell-based, luminescence, retest, dose response (AID 449756); assay type: functional; details: Rattus norvegicus;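 also: cell death triggered by IL-1 beta plus TNF-alpha plus IFN-gamma mixture; protective hits raise ATP signal compared with cytokine alone wells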
[13] = blockade of melanocortin 4 receptor signaling – cell-based, plate reader, cherry pick, counter-screen for LGR2 antagonist project, dose response (AID 743444); assay type: functional;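 also: transfected HEK 293 cells stimulated with alpha-MSH peptide; potency of inhibitors of the alpha-MSH evoked signal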
[14] = toxicity toward HepG2 liver cells – cell-based, plate reader, cherry-pick, antagonist series, cytotoxicity control, dose response (AID 743416); assay type: functional
[15] = A549 cell cytotoxicity, dose response, cytotoxicity control, plate reader, cherry-pick, antagonist series (AID 743412); assay type: functional, cell-based
[16] = Luminescence Cell-Based Dose Confirmation HTS to Identify Inhibitors of Platelet Dense Granule Release. [Related pubchem assays: 1663 (Primary HTS), 1678 (Summary of Project)]; assay type: functional
[17] = HEK-293T viability loss, compound-treated – cell-based, uHTS hits, cytotoxicity control for B/T-cell NF-kB inhibitor project, dose response (AID 489019); assay type: functional;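 also: IC50 reflects cytotoxicity as loss of cell viability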
[18] = molecular target: Luciferin 4-monooxygenase (Photinus pyralis, UniProt P08659); assay: inhibition of purified Photinus pyralis luciferase – biochemical, luminescence, dose response (AID 1891)
[19] = molecular target: T1, Orexin/Hypocretin receptor type 1 (Homo sapiens, UniProt O43613); assay: (§1) Fluorescence-based cell-based high throughput dose response assay for antagonists of the orexin 1 receptor (OX1R; HCRTR1). [Related pubchem assays (depositor defined):AID434989, AID435008, AID463079, AID485270, AID492963, AID492964, AID492965, AID493232, AID504717, AID504718]; assay type: functional
T1 sequence (O43613 whole entry): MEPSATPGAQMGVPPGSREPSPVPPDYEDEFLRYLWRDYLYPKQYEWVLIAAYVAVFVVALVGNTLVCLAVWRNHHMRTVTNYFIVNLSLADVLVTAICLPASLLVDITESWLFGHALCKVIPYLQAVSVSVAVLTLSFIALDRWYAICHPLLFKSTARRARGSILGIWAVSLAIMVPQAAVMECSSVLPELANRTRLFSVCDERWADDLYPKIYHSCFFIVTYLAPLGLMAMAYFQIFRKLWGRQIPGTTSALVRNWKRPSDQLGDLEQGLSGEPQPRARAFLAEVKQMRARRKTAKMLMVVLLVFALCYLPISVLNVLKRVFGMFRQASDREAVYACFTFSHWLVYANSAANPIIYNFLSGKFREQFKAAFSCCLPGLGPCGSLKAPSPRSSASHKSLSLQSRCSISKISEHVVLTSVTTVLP

[20] = (§2) Counterscreen for antagonists of the orexin 1 receptor (OX1R; HCRTR1): Fluorescence-based cell-based high throughput dose response assay to identify antagonists of the parental CHO cell line. [Related pubchem assays (depositor defined):AID434989, AID435008, AID463079, AID485270, AID492963, AID492964, AID492965, AID493232, AID504699, AID504701]; assay type: functional
CHO-K1 = assay: as §2, with “Homogeneous time resolved fluorescence (HTRF)-based” for “Fluorescence-based”, “cell-based” for “cell-based high throughput”, “CHO-K1” for “CHO”; assay type: functional; details: Cricetulus griseus;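 also: potency for inhibition of ATP-stimulated IP1 production as antagonists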
[21] = DRD fibroblast viability loss – cell-based, non-viral oncogenic, luminescence, dose response (AID 1934); assay type: functional; details: Homo sapiens
[22] = molecular target: T1, Orexin/Hypocretin receptor type 1; assay: as §1, with “Homogeneous Time Resolved Fluorescence (HTRF)-based” for “Fluorescence-based”; assay type: functional
BJ [23] = assay: BJ-TERT fibroblast viability loss – cell-based, RAS-independent, luminescence, dose response (AID 1933); assay type: functional; details: Homo sapiens
BJ [24] = assay: cells; assay type: functional, cell-based; details: Homo sapiens
BJ [25] = assay: BJ-TERT-LT-ST fibroblast viability loss – cell-based, RAS-independent, luminescence, dose response (AID 1935); assay type: functional; details: Homo sapiens;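 also: BJ fibroblasts immortalized with TERT plus LT and ST oncogenes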
Jurkat = assay: blockers of NF-kB activation in T cells – Jurkat, luciferase reporter, luminescence, B- and T-cell, dose response (AID 489004); assay type: functional, cell-based; details: Homo sapiens;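 also: NF-kB luciferase reporter Jurkat cells stimulated with PMA plus ionomycin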
BJ [26] = assay: growth inhibition of engineered Ras-driven BJ cells – cell-based, alamar blue fluorescence, cherrypicked samples, dose response (AID 2631); assay type: functional; details: Homo sapiens;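 also: confirmatory dose-response assay in RAS-dependent BJ fibroblasts engineered with TERT, LT and ST, with cytotoxicity read by fluorescence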
Vero = assay: cells; assay type: functional, cell-based; details: Chlorocebus sabaeus

Delta-type opioid receptor, sequence (P41143 whole entry): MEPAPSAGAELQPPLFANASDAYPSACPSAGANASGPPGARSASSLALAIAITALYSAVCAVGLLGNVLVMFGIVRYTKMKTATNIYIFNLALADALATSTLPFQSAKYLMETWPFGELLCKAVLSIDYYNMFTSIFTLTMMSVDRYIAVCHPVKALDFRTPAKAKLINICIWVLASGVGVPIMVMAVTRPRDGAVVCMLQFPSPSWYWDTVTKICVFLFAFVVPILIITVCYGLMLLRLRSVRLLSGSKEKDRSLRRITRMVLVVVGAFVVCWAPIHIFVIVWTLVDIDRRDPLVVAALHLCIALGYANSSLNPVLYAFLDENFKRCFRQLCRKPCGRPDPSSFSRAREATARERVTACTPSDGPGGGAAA
Trypsin, sequence (P00761 whole entry): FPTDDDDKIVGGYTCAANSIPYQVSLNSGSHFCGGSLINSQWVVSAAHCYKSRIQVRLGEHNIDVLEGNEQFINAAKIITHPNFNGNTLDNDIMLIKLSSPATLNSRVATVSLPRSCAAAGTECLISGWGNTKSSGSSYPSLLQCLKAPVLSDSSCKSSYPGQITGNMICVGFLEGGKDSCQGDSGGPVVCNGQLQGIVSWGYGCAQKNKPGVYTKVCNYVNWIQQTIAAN
Mu-type opioid receptor, sequence (P35372 whole entry): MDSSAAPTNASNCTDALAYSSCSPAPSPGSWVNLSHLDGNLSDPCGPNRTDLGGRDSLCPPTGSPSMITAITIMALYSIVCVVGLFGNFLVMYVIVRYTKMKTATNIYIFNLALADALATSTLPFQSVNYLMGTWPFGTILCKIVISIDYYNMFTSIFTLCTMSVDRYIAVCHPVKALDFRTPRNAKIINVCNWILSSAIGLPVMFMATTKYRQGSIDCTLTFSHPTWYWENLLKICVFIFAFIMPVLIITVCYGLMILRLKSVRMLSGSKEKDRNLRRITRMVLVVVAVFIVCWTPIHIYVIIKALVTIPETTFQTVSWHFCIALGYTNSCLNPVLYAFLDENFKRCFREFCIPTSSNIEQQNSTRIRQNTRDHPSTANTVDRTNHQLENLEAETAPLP
Luciferin 4-monooxygenase, sequence (P08659 whole entry): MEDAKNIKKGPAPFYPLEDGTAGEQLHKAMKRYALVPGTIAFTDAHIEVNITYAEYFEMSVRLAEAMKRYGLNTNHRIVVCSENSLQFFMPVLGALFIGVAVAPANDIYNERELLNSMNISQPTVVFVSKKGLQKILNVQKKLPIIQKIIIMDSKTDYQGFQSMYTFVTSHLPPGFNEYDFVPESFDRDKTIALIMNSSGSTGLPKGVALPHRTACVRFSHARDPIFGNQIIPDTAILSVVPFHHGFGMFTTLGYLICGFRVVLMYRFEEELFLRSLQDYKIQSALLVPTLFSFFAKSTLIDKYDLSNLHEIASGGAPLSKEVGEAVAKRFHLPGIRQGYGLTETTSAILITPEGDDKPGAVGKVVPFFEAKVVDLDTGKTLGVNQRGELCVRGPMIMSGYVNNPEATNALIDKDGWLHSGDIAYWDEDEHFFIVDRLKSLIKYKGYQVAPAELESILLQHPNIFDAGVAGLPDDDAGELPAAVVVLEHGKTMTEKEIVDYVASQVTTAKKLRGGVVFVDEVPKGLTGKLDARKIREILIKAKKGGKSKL
5-hydroxytryptamine receptor 5A, sequence (P47898 whole entry): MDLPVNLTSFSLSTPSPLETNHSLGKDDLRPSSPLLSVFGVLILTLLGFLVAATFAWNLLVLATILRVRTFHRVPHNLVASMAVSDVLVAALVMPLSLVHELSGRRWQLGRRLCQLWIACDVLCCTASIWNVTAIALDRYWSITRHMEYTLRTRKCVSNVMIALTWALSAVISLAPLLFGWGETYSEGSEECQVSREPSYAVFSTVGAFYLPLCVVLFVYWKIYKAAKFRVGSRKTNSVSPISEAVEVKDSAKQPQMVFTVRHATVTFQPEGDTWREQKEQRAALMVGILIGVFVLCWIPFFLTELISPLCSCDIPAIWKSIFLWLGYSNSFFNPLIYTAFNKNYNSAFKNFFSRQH
CAAX prenyl protease 2, sequence (Q9Y256 whole entry): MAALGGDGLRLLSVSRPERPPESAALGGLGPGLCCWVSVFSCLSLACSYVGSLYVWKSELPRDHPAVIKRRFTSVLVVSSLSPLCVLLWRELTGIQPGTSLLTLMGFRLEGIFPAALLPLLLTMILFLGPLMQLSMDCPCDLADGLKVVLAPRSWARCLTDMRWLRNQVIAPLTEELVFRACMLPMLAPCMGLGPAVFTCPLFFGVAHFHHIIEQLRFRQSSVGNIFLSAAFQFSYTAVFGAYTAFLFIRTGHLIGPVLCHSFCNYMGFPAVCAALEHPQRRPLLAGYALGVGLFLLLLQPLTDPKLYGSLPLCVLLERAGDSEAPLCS

In the case of `O=[N+]([O-])c1ccc(-c2cc[nH]n2)o1`, the EC50 [1] is reported as 0.202 µM (active), the AC50 (Escherichia coli [2]) is reported as 12.5 µM (active) and the EC50 [3] is reported as > 60 µM (not active). The AC50 (Escherichia coli [4]) was 24 µM (active).
With `COc1cccc(Nc2nc(C)nc3c2oc2ccccc23)c1` the AC50 (Trypsin) was 17 µM (active) and the AC50 (CAAX prenyl protease 2) was 6 µM (active).
In the case of `COc1ccc(C(C)NCCC(c2ccc(OC(C)C)cc2)c2ccccc2OC)cc1` (stereo not drawn), the EC50 [5] is reported as > 120 µM (not active), the EC50 [6] is reported as 10.6 µM (active) and the EC50 [7] is reported as 7.93 µM (active). For the same compound, the AC50 [8] was 11.8 µM (active), the AC50 [9] was 23.2 µM (active) and the EC50 [10] was > 92.5 µM (inactive). The EC50 [11] was > 92.5 µM (inactive), the EC50 (Mu-type opioid receptor) was > 92.5 µM (inactive) and the AC50 [12] was 4.45 µM (active). The AC50 (INS1) was 7.14 µM (active), the AC50 [13] was 28.8 µM (active) and the AC50 [14] was 6.89 µM (active). The AC50 [15] was 6.71 µM (active).
With `CCn1c(C)nc2cc(-c3nc4n(n3)Cc3ccccc3-4)ccc21` the EC50 [16] was 0.352 µM (active), the IC50 [17] was > 80 µM (inactive) and the EC50 [18] was 0.311 µM (active). For the same compound, the IC50 [19] was 48.1 µM (inactive), the IC50 [20] was > 49.8 µM (inactive) and the IC50 (CHO-K1) was > 66.2 µM (inactive). The EC50 [21] was 1.71 µM (active), the IC50 [22] was 2.69 µM (active) and the EC50 (BJ [23]) was 2.18 µM (active). For the same compound, the EC50 (BJ [24]) was 1.76 µM (active), the EC50 (BJ [25]) was 6.25 µM (active) and the IC50 (Jurkat) was 0.23 µM (active). The EC50 (BJ [26]) was > 133 µM (inactive).
For `Cc1ccc(S(=O)(=O)N2C[C@@H](C)[C@]3(C2)[C@H](O)[C@H](OC(=O)Nc2cccs2)C[C@H]2C(=O)N(c4ccccc4)C(=O)[C@H]23)cc1`, the IC50 (Vero) was 22.1 µM (active).
